Test results: US20140079836A1, “METHODS AND COMPOSITIONS FOR ALTERING HEALTH, WELLBEING, AND LIFESPAN” (LifeSpan Extension, LLC, priority 2008, published 2014)

System: telomerase
Test: Quantitative telomerase detection (telomeric repeat formation + PCR) in skin fibroblasts (donor four AG7308, donor one AG14271) with or without UVB
Format: cell-based, human
Method: Culture media: Cells were grown in Minimal Essential Medium supplemented with 10% fetal bovine serum, 2 mM L-glutamine, 2 mM Glutamax I, and 1× MEM non-essential amino acids solution. Cells were washed in the same medium, but without the fetal bovine serum. […] All cultures were incubated at 37° C. with 5% CO2 in a humidified chamber. Seeding of cells: […] Three wells were seeded per test condition or control. Experimental phase: On Day 3, wells were washed 1× with 2 mls medium, fed back 2 mls medium without fetal bovine serum and preincubated for 30-60 minutes before challenge with test or control conditions. […] The green tea polyphenols used were Premier Green Tea Extract Lot #10783, obtained from Pharma Cosmetix Research, LLC (Richmond, Va.). The Green Tea extract was measured into a stock solution of the above described Minimal Essential Media+1% Fetal Bovine Serum in a w/v ratio and then serially diluted into the testing concentrations with MEM+1% Fetal Bovine Serum. Three conditions were tested: […] UVB exposed and unexposed cells without test condition were used as controls. […] Cells from each test and control parameter were then trypsinized, collected by centrifugation, washed 3 times in PBS, and a cell count made using a hemacytometer. The final pellet was stored at −80° C. until processed further. UVB exposure: […] Cells were exposed from the bottom of the culture dish. The UVB dose delivered to the cells was adjusted for interference from the plastic in the culture dish. […] Extract from the cell pellets stored at −80 C post experimental phase was prepared for PCR according to the instructions in the Allied Biotech, Inc, Quantitative Telomerase Detection Kit. Briefly, pellets were thawed and immediately resuspended in 200 ul 1× Lysis Buffer per […]. The suspension was incubated on ice for 30 minutes, then microcentrifuged at 12,000×g for 30 minutes at 4° C. The supernatant was aliquoted and stored at −80° C. Detection of Telomerase: The extract from the cells allows for determination of telomerase activity by coupling the extract's ability to form telomeric repeats onto an oligonucleotide substrate and the resultant extended product are amplified using Polymerase Chain Reaction. These products are then visualized with SYBR green a fluorescent detection agent that emits green fluorescence when bound to the double stranded DNA product. […] The samples were run in a BioRad iCycler for 20 minutes at 25° C. to complete the telomerase reaction. The PCR initial activation step followed immediately and was of 10 minute duration at […]. […] The SYBR green detection occurred during the extension phase. Telomerase Detection Results: […] The raw analysis is provided in DATA TABLE 1. […] Culture media: Cells were grown in Minimal Essential Medium supplemented with 10% fetal bovine serum, 2 mM L-glutamine, 2 mM Glutamax I, and 1×MEM non-essential amino acids solution. Cells were washed in the same medium, but without the fetal bovine serum. […] All cultures were incubated at 37° C. with 5% CO2 in a humidified chamber. Seeding of cells: […] Three wells were seeded per test condition or control. Experimental phase: On Day 3, wells were washed 1× with 2 mls medium, fed back 2 mls medium without fetal bovine serum and preincubated for 30-60 minutes before challenge with test or control conditions. […] The 1% stock solution was also diluted with MEM+1% FBS until the testing concentrations were reached. Three conditions were tested: […] UVB exposed and unexposed cells without test condition were used as controls. […] Cells from each test and control parameter were then trypsinized, collected by centrifugation, washed 3 times in PBS, and a cell count made using a hemacytometer. The final pellet was stored at −80° C. until processed further. UVB exposure: […] Cells were exposed from the bottom of the culture dish. The UVB dose delivered to the cells was adjusted for interference from the plastic in the culture dish. […]

Question: Which Level of telomerase (donor four UVB + agent 4 hr, compared to UVB Tx Control) does the source give for `COC1=C(OC)C(=O)C(CCCCCCCCCCO)=C(C)C1=O` [Idebenone, 6-(10-hydroxydecyl)-2,3-dimethoxy-5-methyl-1,4-benzoquin-one] here?
Answer: Its Level of telomerase is −1.07.

Question: And the Level of telomerase (donor four UVB + agent 4 hr, compared to UnTx Control)?
Answer: The Level of telomerase was 90.51.

Question: And the Level of telomerase (donor four UVB + agent Continuous, compared to UVB Tx Control)?
Answer: Its Level of telomerase is −1.00.

Question: What about the Level of telomerase (donor four UVB + agent Continuous, compared to UnTx Control) of the same compound?
Answer: Its Level of telomerase is 97.01.

Question: And the “less telomerase activity than untreated cells” value (donor four cells given Idebenone)?
Answer: The value was “roughly 53%”.

Question: And the telomerase activity (donor four cells given Idebenone and 1 MED UVB vs UVB stressed cells alone)?
Answer: The telomerase activity was −1.7 fold.

Question: What about the telomerase activity (donor four cells given Idebenone and 1 MED UVB vs untreated cells) of the same compound?
Answer: The telomerase activity was −2.4 fold.

Question: What about the Level of telomerase (donor four idebenone Vs. person idebenone 4 hr) of the same compound?
Answer: Its Level of telomerase is 1.46.

Question: What about the telomerase activity (donor one cells given Idebenone and 1 MED UVB vs UVB treated age matched controls) of the same compound?
Answer: Its telomerase activity is −2.65 fold.

Question: And the telomerase activity (donor one cells given Idebenone and 1 MED UVB vs untreated controls)?
Answer: Its telomerase activity is “roughly −2.61 fold”.

Question: What about the “telomerase activity (summary in words)” value (stressed (UVB) and unstressed cells) of the same compound?
Answer: The value was “decreased level of telomerase activity”.
